{"source": "paper PMC7291858", "about": "“An Enhanced Variant Designed From DLP4 Cationic Peptide Against Staphylococcus aureus CVCC 546” (Frontiers in Microbiology, 2020)", "key": {"[1]": {"tested_on": "S. aureus ATCC 43300", "type": "cell-based, Staphylococcus aureus", "settings": "microtiter, serial 2-fold dilutions, 37°C, 16∼20 h, triplicate; – = no activity", "procedure,_shortened": "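Test peptides were serially diluted 2-fold in microtiter wells holding the same bacterial inoculum and incubated at 37°C for 16∼20 h. MIC was taken as the lowest peptide concentration with no visible growth; vancomycin served as control, and tests were run in triplicate.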"}, "[2]": {"tested_on": "S. aureus CVCC 546", "experiment": "Post-antibiotic effect (PAE)", "type": "cell-based, Staphylococcus aureus", "settings": "2 × MIC, 2 h exposure, mean ± SD, n = 3", "protocol": "The PAE was determined by exposing S. aureus cells to antimicrobial agent at 1×, 2×, or 4 × MIC for 2 h. After drug removal by dilution, the bacterial culture was incubated at 37°C and 250 rpm. An aliquot of samples (50 μL) were taken for CFU counts at different time intervals until bacterial cultures became turbid. Bacteria treated with DLP4 or vancomycin and left without treatment were used as the positive and blank controls, respectively. The PAE was calculated using the following formula: PAE = T − C, where T is the time for the CFU counts to increase by 10-fold above the count observed immediately after drug removal, and C is the corresponding time for the untreated control ([Oh et al., 2019])."}, "[3]": {"tested_on": "S. suis CVCC 3928", "experiment": "MIC, microtiter plate assay", "type": "cell-based, Streptococcus suis", "settings": "37°C, 16∼20 h, triplicate", "protocol": "The minimal inhibitory concentration (MIC) was evaluated by a microtiter plate assay ([Wiegand et al., 2008]). Serial 2-fold dilutions of test peptides were placed into a 96-well plate containing identical bacterial inoculum and incubated at 37°C for 16∼20 h. Vancomycin was used as antibiotic control. The MIC value was defined as the lowest peptide concentration where no visible growth occurred. All tests were made in triplicate."}, "[4]": {"tested_on": "TNF-α", "experiment": "Mouse thigh infection model, serum cytokine ELISA", "type": "in vivo, mouse (female CD-1)", "settings": "10 mg/kg i.p., serum 24 h post-infection", "protocol": "(§1) Mouse experiments were carried out at Gene Engineering Laboratory, Feed Research Institute of Chinese Academy of Agricultural Sciences (CAAS) and complied with institutional animal care and use policies and procedures (AEC-CAAS-20090609). All animal studies were performed with female CD-1 mice, 6∼7 weeks old.\n(§2) S. aureus CVCC 546 in the exponential phase were resuspended in MHB and adjusted to 1 × 10^8 CFU/mL, a 0.1-mL inoculum was injected into the right thighs of mice. At 2 h post-infection, mice (n = 6) were administered intraperitoneally (i.p.) with peptides at 2.5, 5, or 10 mg/kg. Mice raised without any treatment, or treated with PBS, 10 mg/kg DLP4, or vancomycin were used as the blank and negative and positive controls, respectively. At 24 h post-infection, peripheral blood was collected and serum was separated for cytokine levels analysis by using enzyme-linked immunosorbent assay (ELISA) kit (R&D systems, United States). Mice were euthanized, the right thighs were aseptically removed and processed for colonies counting ([Ling et al., 2015])."}, "[5]": {"tested_on": "IL-6", "experiment": "Mouse thigh infection model, serum cytokine ELISA", "type": "in vivo, mouse (female CD-1)", "settings": "10 mg/kg i.p., serum 24 h post-infection", "protocol": "as §1, §2"}, "[6]": {"tested_on": "IL-10", "experiment": "Mouse thigh infection model, serum cytokine ELISA", "type": "in vivo, mouse (female CD-1)", "settings": "10 mg/kg i.p., serum 24 h post-infection", "protocol": "as §1, §2"}}, "note": "Peptide text beside a SMILES is read from it.", "data": [{"molecule": "CC[C@H](C)[C@@H]1NC(=O)[C@@H]2CSSC[C@@H](C(=O)N[C@@H](CCCNC(=N)N)C(=O)N[C@@H](CCCCN)C(=O)O)NC(=O)[C@H](CC(N)=O)NC(=O)[C@@H]3CSSC[C@H](NC(=O)[C@H](C)NC(=O)[C@H](C)NC(=O)[C@H](Cc4c[nH]cn4)NC(=O)CNC(=O)[C@H](C(C)C)NC(=O)[C@H](CCCCN)NC(=O)[C@H](Cc4ccccc4)NC(=O)[C@@H]4CCCN4C(=O)[C@H](CO)NC(=O)[C@H](CC(C)C)NC(=O)[C@H](CC(C)C)NC(=O)[C@H](CC(=O)O)NC(=O)[C@@H](NC(=O)[C@@H](NC(=O)[C@H](C)N)[C@@H](C)O)CSSC[C@H](NC(=O)[C@H](Cc4c[nH]c5ccccc45)NC(=O)CNC(=O)CNC(=O)[C@H](CCCNC(=N)N)NC(=O)[C@H](CCCCN)NC(=O)CNC(=O)[C@H](CCCNC(=N)N)NC(=O)[C@H](C)NC1=O)C(=O)N[C@@H](CC(=O)O)C(=O)NCC(=O)N[C@@H](CCCNC(=N)N)C(=O)N[C@@H](C)C(=O)N[C@@H](C(C)C)C(=O)N3)C(=O)N[C@@H](C)C(=O)N[C@@H](C)C(=O)N[C@@H](Cc1c[nH]cn1)C(=O)N2", "note": "[ID13] (HELM PEPTIDE1{A.T.C.D.L.L.S.P.F.K.V.G.H.A.A.C.A.A.H.C.I.A.R.G.K.R.G.G.W.C.D.G.R.A.V.C.N.C.R.K}$PEPTIDE1,PEPTIDE1,3:R3-30:R3|PEPTIDE1,PEPTIDE1,16:R3-36:R3|PEPTIDE1,PEPTIDE1,20:R3-38:R3$$$V2.0; N-terminus and C-terminus assumed)", "values": [{"measurement": "A1 (MIC against S. aureus ATCC 43300)", "setting": "[1]", "result": 4, "unit": "µg/mL"}, {"measurement": "PAE", "setting": "[2]", "result": "12.78 ± 0.28", "unit": "h"}, {"measurement": "MIC", "setting": "[3]", "result": 0.95, "unit": "µM"}, {"measurement": "downregulation of serum level of TNF-α", "setting": "[4]", "result": 1123.30, "unit": "pg/mL"}, {"measurement": "downregulation of serum level of IL-6", "setting": "[5]", "result": 750.02, "unit": "pg/mL"}, {"measurement": "downregulation of serum level of IL-10", "setting": "[6]", "result": 37.66, "unit": "pg/mL"}]}]}
